Experimental data: US5492896A, “Pseudopeptides having an antiviral action” (Bayer Aktiengesellschaft, priority 1993, dated 1996)
Where two headings read alike, the source gives them in different places. One block for each compound: values may come before it. Numbered stars: 1 amine (or outer) side, 2 acyl side, 3 side chain; on linkers, the order of the positions; unused ones are H or OH. Square brackets hold non-standard residues; d marks the D form. Peptide text beside a SMILES is read from it. * marks the point of attachment. Tos = Cc1ccc(S(=O)(=O)*)cc1; CO = O=C([*:1])[*:2]

Key:
[1] = system: human embryonal lung fibroblasts (HELF); test: Anticellular (toxic and cytostatic) action in the anti-HCMV screening test; format: cell-based
Procedure: (§1) The anti-HCMV action was determined in a screening test system in 96-well microtitre plates with the aid of human embryonal lung fibroblasts (HELF) cell cultures. The influence of the substances on the spread of the cytopathogenic effect was determined in comparison with the reference substance ganciclovir ([…]®-sodium), a clinically approved anti-HCMV chemotherapeutic. The substances are dissolved in DMSO (dimethyl sulphoxide; 50 mM) and investigated on microtitre plates (96-well) in final concentrations of 1000-0.00048 μM (micromolar) in duplicate determinations (4 substances/plate). Toxic and cytostatic actions of the substances are also recorded here. After the appropriate dilutions of the substances (1:2) on the microtitre plate, a suspension of 50-100 HCMV-infected HELF cells and 3×10^4 non-infected HELF cells in Eagle's MEM (minimal essential medium) with 10% foetal calf serum is introduced into each cup and the plates are incubated at 37° C. in a CO2 incubating cabinet for 6 days. After this period, the cell lawn in the substance-free virus controls, starting from 50-100 infectious centres, is completely destroyed by the cytopathogenic effect (CPE) of the HCMV (100% CPE). After staining with neutral red and fixing with formalin/methanol, the plates are evaluated with the aid of a projection microscope (Plaque Viewer). […]

[2] = system: HCMV (Davis strain); test: Anti-HCMV screening test: spread of cytopathogenic effect in HELF cell cultures; format: cell-based, human cytomegalovirus; settings: concentration causing 50% inhibition of the CPE, HELF cells, 6 days
Procedure: as §1

[3] = molecular target: T1, HIV protease (HIV-1) (Human immunodeficiency virus type 1 group M subtype B, UniProt P04585); test: HIV-specific protease enzyme test (synthetic peptide cleavage, RP-HPLC); format: biochemical; settings: 50% inhibition of protease activity; purified HIV protease, synthetic Gag cleavage-site peptide
T1 construct: purified HIV protease was incubated with a synthetic peptide
Procedure: This is documented by an HIV-specific protease enzyme test.
The results of the examples described below were determined by the HIV test system described in the following literature references [compare Hansen, J., Billich, S., Schulze, T., Sukrow, S. and Molling, K. (1988), EMBO Journal, volume 7, No. 6, pages 1785-1791]: purified HIV protease was incubated with a synthetic peptide which imitates a cutting site in the Gag precursor protein and represents an in vivo cleavage site of HIV protease. The cleavage products formed from the synthetic peptide were analysed by reverse phase high performance liquid chromatography (RP-HPLC). The IC50 values stated relate to the substance concentration which causes 50% inhibition of protease activity under the abovementioned test conditions.

- IC50 [2]: 1.95 µM
Structure (SMILES): COC(=O)[C@H](Cc1ccccc1)NC(=O)N[C@@H](CCCNC(=N)NS(=O)(=O)c1ccc(C)cc1)C(=O)N[C@H](C(=O)N[C@@H](C=O)Cc1ccccc1)C(C)C [Example 4] ({OMe-Phe-CO}-Arg(Tos)-Val-[dF]-aldehyde)
- CIC50 (μM) HELF [1]: 62.5 µM

Structure (SMILES): CC(C)[C@H](NC(=O)[C@H](CCCNC(=N)N)NC(=O)N[C@@H](Cc1ccccc1)C(=O)O)C(=O)N[C@@H](C=O)Cc1ccccc1 [IX, (2R)-2-{Nα -[((1S)-1-Carboxy-2-phenyl-ethyl)aminocarbonyl]-S-arginyl-S-valinyl}amino-3-phenyl-propan-1-al] ({Phe-CO}-Arg-Val-[dF]-aldehyde)
- IC50 [3]: 160 µM

- IC50 ([2]; Human betaherpesvirus 5, 144 h): 2 to 4 µM
Structure (SMILES): Nc1nc(O)c2ncn(COC(CO)CO)c2n1 [Namevene ®, ganciclovir]
- CIC50 (μM) HELF ([1]; maximum concentration which displays no evident anticellular action, HELF cells, 6 days): 125 µM

Structure (SMILES): CC(C)[C@H](NC(=O)[C@H](CCCNC(=N)N)NC(=O)N[C@@H](Cc1ccccc1)C(=O)O)C(=O)N[C@H](C=O)Cc1ccccc1 [VIII, (2S)-2-{Nα -[((1S)-1-Carboxy-2-phenyl-ethyl)aminocarbonyl]-S-arginyl-S-valinyl}amino-3-phenyl-propan-1-al] ({Phe-CO}-Arg-Val-Phe-aldehyde)
- IC50 [3]: 19 µM
